According to PubChem BioAssay AID1963973 (Molecular Pharmacology Branch, DTP, NCI, 2024):

Tested on: 883617-216-R-J1-PDC tumor spheroids, viability
Test: Anticancer human tumor 883617-216-R-J1-PDC patient-derived bladder carcinoma cell line growth inhibition [PI3K]
Conditions: spheroids with HUVEC and MSC; for IC50: curve of first compound; for viability, T/C: stronger effect = lower value
Summary of the method: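 Agents were dosed from a top concentration near clinical Cmax (otherwise 10 microM) in half-log decrements, alone or combined with PI3K inhibitors. The spheroids contain tumor cells plus endothelial (HUVEC) and MSC stroma; viability is measured.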

[1] = second compound 0.0316 µM, first compound 0.0316 µM
[2] = second compound 0.0316 µM, first compound 0.1 µM
[3] = second compound 0.1 µM, first compound 0.0316 µM
[4] = second compound 0.1 µM, first compound 0.1 µM
[5] = second compound 0.316 µM, first compound 0.0316 µM
[6] = second compound 0.316 µM, first compound 0.1 µM
[7] = second compound 1 µM, first compound 0.0316 µM
[8] = second compound 1 µM, first compound 0.1 µM
[9] = second compound 3.16 µM, first compound 0.0316 µM
[10] = second compound 3.16 µM, first compound 0.1 µM
[11] = second compound 10 µM, first compound 0.0316 µM
[12] = second compound 10 µM, first compound 0.1 µM
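Note: spheroids exposed to agents for 7 days before the viability read.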

**Q.** Which results are given for `CC(C)n1nc(-c2ccc3oc(N)nc3c2)c2c(N)ncnc21` + CC(Nc1ncnc2nc[nH]c12)c1cc2cccc(Cl)c2c(=O)n1-c1ccccc1?
**A.** IC50 (second compound 0.0316 µM): 32.1 nM; IC50 (second compound 0.1 µM): 34.2 nM; IC50 (second compound 0.316 µM): 30 nM; IC50 (second compound 1 µM): 21.3 nM; IC50 (second compound 3.16 µM): 13.5 nM; IC50 (second compound 10 µM): 0.321 nM; viability, T/C (second compound 0.0316 µM, first compound 0.000316 µM): 91%; viability, T/C (second compound 0.0316 µM, first compound 0.001 µM): 75.2%; viability, T/C (second compound 0.0316 µM, first compound 0.00316 µM): 76.8%; viability, T/C (second compound 0.0316 µM, first compound 0.01 µM): 82%; viability, T/C [1]: 50.4%; viability, T/C [2]: 18.4%; viability, T/C (second compound 0.1 µM, first compound 0.000316 µM): 95.3%; viability, T/C (second compound 0.1 µM, first compound 0.001 µM): 93%; viability, T/C (second compound 0.1 µM, first compound 0.00316 µM): 87.6%; viability, T/C (second compound 0.1 µM, first compound 0.01 µM): 69.7%; viability, T/C [3]: 54.5%; viability, T/C [4]: 17.4%; viability, T/C (second compound 0.316 µM, first compound 0.000316 µM): 87.4%; viability, T/C (second compound 0.316 µM, first compound 0.001 µM): 92.5%; viability, T/C (second compound 0.316 µM, first compound 0.00316 µM): 81.7%; viability, T/C (second compound 0.316 µM, first compound 0.01 µM): 72.8%; viability, T/C [5]: 49%; viability, T/C [6]: 19.9%; viability, T/C (second compound 1 µM, first compound 0.000316 µM): 91.2%; viability, T/C (second compound 1 µM, first compound 0.001 µM): 77.1%; viability, T/C (second compound 1 µM, first compound 0.00316 µM): 80.2%; viability, T/C (second compound 1 µM, first compound 0.01 µM): 68.3%; viability, T/C [7]: 40.2%; viability, T/C [8]: 19.6%; viability, T/C (second compound 3.16 µM, first compound 0.000316 µM): 83.6%; viability, T/C (second compound 3.16 µM, first compound 0.001 µM): 58.9%; viability, T/C (second compound 3.16 µM, first compound 0.00316 µM): 63.2%; viability, T/C (second compound 3.16 µM, first compound 0.01 µM): 60.6%; viability, T/C [9]: 38.1%; viability, T/C [10]: 17.7%; viability, T/C (second compound 10 µM, first compound 0.000316 µM): 48.3%; viability, T/C (second compound 10 µM, first compound 0.001 µM): 50.7%; viability, T/C (second compound 10 µM, first compound 0.00316 µM): 45.8%; viability, T/C (second compound 10 µM, first compound 0.01 µM): 36.3%; viability, T/C [11]: 26.8%; viability, T/C [12]: 13%

**Q.** Which IC50 (second compound 0.0316 µM) does the source give for `CC1(C)CCC(CN2CCN(c3ccc(C(=O)NS(=O)(=O)c4ccc(NCC5CCOCC5)c([N+](=O)[O-])c4)c(Oc4cnc5[nH]ccc5c4)c3)CC2)=C(c2ccc(Cl)cc2)C1` + CC(Nc1ncnc2nc[nH]c12)c1cc2cccc(Cl)c2c(=O)n1-c1ccccc1 here?
**A.** > 10000 nM

**Q.** And the IC50 (second compound 0.1 µM)?
**A.** > 10000 nM

**Q.** What about the IC50 (second compound 0.316 µM) of the same compound?
**A.** 8990 nM

**Q.** And the IC50 (second compound 1 µM)?
**A.** 7690 nM

**Q.** What about the IC50 (second compound 3.16 µM) of the same compound?
**A.** 6400 nM

**Q.** What about the IC50 (second compound 10 µM) of the same compound?
**A.** < 31.6 nM

**Q.** What about the viability, T/C [1] of the same compound?
**A.** 93.1%

**Q.** What about the viability, T/C [2] of the same compound?
**A.** 87.2%

**Q.** And the viability, T/C (second compound 0.0316 µM, first compound 0.316 µM)?
**A.** 93.8%

**Q.** And the viability, T/C (second compound 0.0316 µM, first compound 1 µM)?
**A.** 87.7%

**Q.** And the viability, T/C (second compound 0.0316 µM, first compound 3.16 µM)?
**A.** 87%

**Q.** What about the viability, T/C (second compound 0.0316 µM, first compound 10 µM) of the same compound?
**A.** 50.8%

**Q.** What about the viability, T/C [3] of the same compound?
**A.** 97%

**Q.** What about the viability, T/C [4] of the same compound?
**A.** 84.3%

**Q.** What about the viability, T/C (second compound 0.1 µM, first compound 0.316 µM) of the same compound?
**A.** 91.7%

**Q.** And the viability, T/C (second compound 0.1 µM, first compound 1 µM)?
**A.** 97.5%

**Q.** What about the viability, T/C (second compound 0.1 µM, first compound 3.16 µM) of the same compound?
**A.** 90.8%

**Q.** What about the viability, T/C (second compound 0.1 µM, first compound 10 µM) of the same compound?
**A.** 52%

**Q.** And the viability, T/C [5]?
**A.** 94.7%

**Q.** What about the viability, T/C [6] of the same compound?
**A.** 96.2%

**Q.** What about the viability, T/C (second compound 0.316 µM, first compound 0.316 µM) of the same compound?
**A.** 92%

**Q.** What about the viability, T/C (second compound 0.316 µM, first compound 1 µM) of the same compound?
**A.** 88%

**Q.** What about the viability, T/C (second compound 0.316 µM, first compound 3.16 µM) of the same compound?
**A.** 76.6%

**Q.** What about the viability, T/C (second compound 0.316 µM, first compound 10 µM) of the same compound?
**A.** 46.9%

**Q.** And the viability, T/C [7]?
**A.** 85.2%

**Q.** What about the viability, T/C [8] of the same compound?
**A.** 85.8%

**Q.** And the viability, T/C (second compound 1 µM, first compound 0.316 µM)?
**A.** 88%

**Q.** What about the viability, T/C (second compound 1 µM, first compound 1 µM) of the same compound?
**A.** 79.3%

**Q.** What about the viability, T/C (second compound 1 µM, first compound 3.16 µM) of the same compound?
**A.** 70.1%

**Q.** And the viability, T/C (second compound 1 µM, first compound 10 µM)?
**A.** 44.2%

**Q.** What about the viability, T/C [9] of the same compound?
**A.** 62.6%

**Q.** What about the viability, T/C [10] of the same compound?
**A.** 76%

**Q.** What about the viability, T/C (second compound 3.16 µM, first compound 0.316 µM) of the same compound?
**A.** 62.6%

**Q.** What about the viability, T/C (second compound 3.16 µM, first compound 1 µM) of the same compound?
**A.** 65.7%

**Q.** What about the viability, T/C (second compound 3.16 µM, first compound 3.16 µM) of the same compound?
**A.** 59.2%

**Q.** And the viability, T/C (second compound 3.16 µM, first compound 10 µM)?
**A.** 44.1%

**Q.** And the viability, T/C [11]?
**A.** 49%

**Q.** And the viability, T/C [12]?
**A.** 52.6%

**Q.** And the viability, T/C (second compound 10 µM, first compound 0.316 µM)?
**A.** 46.3%

**Q.** And the viability, T/C (second compound 10 µM, first compound 1 µM)?
**A.** 40.3%

**Q.** And the viability, T/C (second compound 10 µM, first compound 3.16 µM)?
**A.** 46.1%

**Q.** What about the viability, T/C (second compound 10 µM, first compound 10 µM) of the same compound?
**A.** 28.3%
